Literature values as cited in US20030216431A1, “Ophthalmic pharmaceutical compositions and methods for treating ocular inflammation” (priority 2002, published 2003).

Conditions: for daily dosage causing serious retinopathy: systemic use in patients, nearly all instances

Row | duration of intake without clinically evident retinopathy (not exceeding 250 mg diphosphate or 200 mg sulfate per day) | daily dosage causing serious retinopathy | time to onset of definite retinopathy (dosage slightly greater than 250 mg chloroquine diphosphate per day) | SMILES
1 | nine | – | – | CCN(CC)CCCC(C)Nc1ccnc2cc(Cl)ccc12 (stereo not shown) [chloroquine, Chloroquine]
2 | – | > 200 mg per day | – | CCN(CC)CCCC(C)Nc1ccnc2cc(Cl)ccc12.O=S(=O)(O)O (stereo not shown) [chloroquine sulfate, Quinoline, 7-chloro-4-((4-(diethylamino)-1-methylbutyl)amino)-, sulfate]
3 | – | more than 250 mg per day | one to three | CCN(CC)CCCC(C)Nc1ccnc2cc(Cl)ccc12 (stereo not shown) [chloroquine diphosphate, Quinoline, 7-chloro-4-((4-(diethylamino)-1-methylbutyl)amino)-, diphosphate]
